Experiments:
albumin = target: T1, albumin (Homo sapiens, UniProt P02768); parameters: method as in Barbas et al.; settings: equimolar DFSA/albumin ratios; ref Barbas et al.; cited from earlier work
T1 construct: purchased Sigma-Aldrich A8763

[1] = Stability of oxaliplatin in PB at pH 7.4 (HPLC); format: physicochemical; settings: pH 7.4, 20 °C
Description: The samples were incubated at 20 °C and measured over 25 h. […] RP-HPLC runs were performed using a Waters Acquity UPLC HSS T3 column (100 Å, 1.8 μm, 3.0 mm × 50 mm) on a Dionex Thermo Scientific UltiMate 3000 HPLC system, equipped with a HPG-3400RS binary pump and a DAD-3000RS UV–vis detector. Chromatograms were evaluated at a wavelength of 230 nm. Milli-Q water (mobile phase A) and acetonitrile (mobile phase B), both containing 0.1% TFA, were used as eluents. The flow rate was consistent at 0.6 mL/min for all measurements using the following gradient: 0–0.5 min A 99:1 B, 0.5–5.5 min linear gradient to A 1:99 B, 5.5–6.5 min A 1:99 B, 6.5–9.2 min A 99:1 B.

[2] = parameters: method as in Schueffl et al.; settings: oxaliplatin data used from earlier paper, ref Schueffl et al., cited from earlier work
CT26 colon cancer cells = tested on: CT26 colon cancer cells; parameters: method as in Schueffl et al.; settings: already described in earlier studies; ref Schueffl et al.; cited from earlier work
[3] = serum platinum, i.v. 9 mg/kg oxaliplatin

T1 sequence (P02768 25-609): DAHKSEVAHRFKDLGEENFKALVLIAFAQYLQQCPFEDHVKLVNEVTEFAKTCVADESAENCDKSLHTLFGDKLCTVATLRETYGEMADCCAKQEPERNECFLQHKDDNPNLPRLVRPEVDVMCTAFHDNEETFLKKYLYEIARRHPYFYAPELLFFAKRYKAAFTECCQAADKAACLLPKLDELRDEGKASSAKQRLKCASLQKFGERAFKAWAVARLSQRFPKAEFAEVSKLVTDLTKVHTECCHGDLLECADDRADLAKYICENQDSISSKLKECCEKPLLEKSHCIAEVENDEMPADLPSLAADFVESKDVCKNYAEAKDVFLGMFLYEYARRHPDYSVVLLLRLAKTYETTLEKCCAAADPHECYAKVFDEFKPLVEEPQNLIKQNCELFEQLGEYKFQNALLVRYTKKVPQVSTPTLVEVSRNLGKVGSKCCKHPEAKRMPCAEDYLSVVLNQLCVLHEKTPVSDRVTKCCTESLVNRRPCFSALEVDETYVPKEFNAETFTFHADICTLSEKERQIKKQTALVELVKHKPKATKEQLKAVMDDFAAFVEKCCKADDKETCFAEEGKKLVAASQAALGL

Row | SMILES | Albumin binding after 24 h (albumin) | Hydrolysis after 25 h [1] | AUCPt_0-24 [2, 3] | AUCPt_0-∞ [2, 3] | Cmax ([2]; serum platinum, tmax=0.08 h) | Half-life ([2]; terminal half-life) | Vz ([2]; terminal phase) | Percentage of AUCPt_0-∞ extrapolated from tlast to infinity ([2]; tlast=24 h) | CL ([2]; total body clearance) | Effect on overall survival in the CT26 model (CT26 colon cancer cells)
1 | O=C(O)C1=CCCCC1S(=O)(=O)Nc1ccc(F)cc1F (stereo not shown) [DFSA, 6-(N-(2,4-difluorophenyl)-sulfamoyl)-cyclohex-1-ene-1-carboxylic acid] | less than 25% | – | – | – | – | – | – | – | – | –
2 | O=C1[O][Pt]2([NH][C@@H]3CCCC[C@H]3[NH]2)[O]C1=O [oxaliplatin] | – | ~15% | 26.6 mg·h/kg | 37.5 mg·h/kg | 6.17 mg/kg | 14.3 h | 2.42 kg/kg | 29.0% | 0.118 kg/h/kg | does not lead to prolonged overall survival

— article PMC12261219, “Comparative Evaluation of Thiol- and Amine-Conjugating Moieties for Endogenous Albumin Binding after Intravenous Administration” (ACS Pharmacology & Translational Science, 2025)
